Earlier results as cited in US9585850B2, “Methods of treatment using arylcyclopropylamine compounds” (Duke University, priority 2011, dated 2017).

Tested on: DDD mice
Conditions: Sotnikova et al.
In the case of `CN1CCc2cccc3c2[C@H]1Cc1ccc(O)c(O)c1-3` [apomorphine], the “restoration of locomotion / treatment of akinesia in DDD mice” value is listed as “effective in treating akinesia”. In the case of `CCCN1C[C@H](CSC)C[C@@H]2c3cccc4[nH]cc(c34)C[C@H]21` [pergolide], the “restoration of locomotion / treatment of akinesia in DDD mice” value is given as “effective in treating akinesia”. In the case of `N[C@@H](Cc1ccc(O)c(O)c1)C(=O)O` [L-DOPA, L-3,4-dihydroxyphenylalanine], the “restoration of locomotion / treatment of akinesia in DDD mice” value is given as “fully restored locomotion”.
